Source: US8822503B2, “2-pyridone compounds” (Taisho Pharmaceutical Co., Ltd, priority 2009, dated 2014)

Biological target: T1, human liver GK (Homo sapiens, UniProt P35557)
T1 construct: GST (glutathione S-transferase) (N); made in house; host or cells: E. coli
T1 sequence (P35557 1-466 isoform P35557-2): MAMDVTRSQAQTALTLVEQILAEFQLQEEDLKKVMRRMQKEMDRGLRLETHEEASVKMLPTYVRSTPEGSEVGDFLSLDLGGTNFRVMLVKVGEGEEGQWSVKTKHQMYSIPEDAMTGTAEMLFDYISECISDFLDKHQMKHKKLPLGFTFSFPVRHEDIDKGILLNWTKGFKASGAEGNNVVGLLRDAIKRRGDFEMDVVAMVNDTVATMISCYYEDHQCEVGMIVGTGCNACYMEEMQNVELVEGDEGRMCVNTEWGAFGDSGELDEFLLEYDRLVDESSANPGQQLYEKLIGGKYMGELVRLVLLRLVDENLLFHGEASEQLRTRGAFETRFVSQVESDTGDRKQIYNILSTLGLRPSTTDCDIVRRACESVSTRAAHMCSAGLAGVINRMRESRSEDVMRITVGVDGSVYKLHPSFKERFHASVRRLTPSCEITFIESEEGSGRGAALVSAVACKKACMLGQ
Assay: GK activation test
Format: biochemical
Conditions: test compound concentration needed to activate 50% of maximum activation ability; 4 mM 14C-labeled glucose, 2 mM ATP, room temperature, 20 minutes
Method in brief: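 GST-tagged human liver GK from E. coli (0.24 μg/well) with 4 mM 14C-glucose, 2 mM ATP in Hepes-KOH pH 7.1, KCl, MgCl2, DTT, 1% DMSO, 20 min room temperature. Labeled glucose 6-phosphate captured on anion resin, eluted and counted. EC50 = concentration giving half of maximal activation.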

| SMILES | EC50 |
| --- | --- |
| CC(C)(C)c1ccc(/C(=C\[C@H]2CCC(=O)N2)c2ccc(CCCCO)c(=O)[nH]2)cc1 [Example 4-190, 6-{(E)-1-(4-tert-Butylphenyl)-2-[(2R)-5-oxopyrrolidin-2-yl]ethenyl}-3-(4-hydroxybutyl)pyridin-2(1H)-one] | 10 to 500 nM |
| CCCc1ccc(/C(=C/[C@H]2CCC(=O)N2)c2ccc(C(C)(C)C)cc2)[nH]c1=O [Example 4-192, 6-{(E)-1-(4-tert-Butylphenyl)-2-[(2R)-5-oxopyrrolidin-2-yl]ethenyl}-3-propylpyridin-2(1H)-one] | 10 to 500 nM |
| CCCCCc1ccc(/C(=C/[C@H]2CCC(=O)N2)c2ccc(C(C)(C)C)cc2)[nH]c1=O [Example 4-193, 6-{(E)-1-(4-tert-Butylphenyl)-2-[(2R)-5-oxopyrrolidin-2-yl]ethenyl}-3-pentylpyridin-2(1H)-one] | 10 to 500 nM |
| CC(C)(C)c1ccc(/C(=C\[C@H]2CCC(=O)N2)c2ccc(CCC3CCCCC3)c(=O)[nH]2)cc1 [Example 4-195, 6-{(E)-1-(4-tert-Butylphenyl)-2-[(2R)-5-oxopyrrolidin-2-yl]ethenyl}-3-(2-cyclohexylethyl)pyridin-2(1H)-one] | 10 to 500 nM |
| CC(C)(C)c1ccc(/C(=C\[C@H]2CCC(=O)N2)c2ccc(CCCO)c(=O)[nH]2)cc1 [Example 4-198, 6-{(E)-1-(4-tert-Butylphenyl)-2-[(2R)-5-oxopyrrolidin-2-yl]ethenyl}-3-(3-hydroxypropyl)pyridin-2(1H)-one] | 10 to 500 nM |
| O=C1CC[C@H](/C=C(\c2ccc(Cl)cc2)c2ccc(CCCCO)c(=O)[nH]2)N1 [Example 4-199, 6-{(E)-1-(4-Chlorophenyl)-2-[(2R)-5-oxopyrrolidin-2-yl]ethenyl}-3-(4-hydroxybutyl)pyridin-2(1H)-one] | 500 to 3000 nM |

Other lines, results leading:

| EC50 | SMILES |
| --- | --- |
| 500 to 3000 nM | CC(C)(C)c1ccc(/C(=C\[C@H]2CCC(=O)N2)c2ccc(Oc3ccc(Cl)cc3)c(=O)[nH]2)cc1 [Example 4-188, 6-{(E)-1-(4-tert-Butylphenyl)-2-[(2R)-5-oxopyrrolidin-2-yl]ethenyl}-3-(4-chlorophenoxy)pyridin-2(1H)-one] |
| 500 to 3000 nM | CC(C)(C)c1ccc(/C(=C\[C@H]2CCC(=O)N2)c2ccc(Oc3ccc(C(F)(F)F)cc3)c(=O)[nH]2)cc1 [Example 4-189, 6-{(E)-1-(4-tert-Butylphenyl)-2-[(2R)-5-oxopyrrolidin-2-yl]ethenyl}-3-[4-(trifluoromethyl)phenoxy]pyridin-2(1H)-one] |
| 500 to 3000 nM | CN(C)CCCCc1ccc(/C(=C/[C@H]2CCC(=O)N2)c2ccc(C(C)(C)C)cc2)[nH]c1=O [Example 4-191, 6-{(E)-1-(4-tert-Butylphenyl)-2-[(2R)-5-oxopyrrolidin-2-yl]ethenyl}-3-[4-(dimethylamino)butyl]pyridin-2(1H)-one] |
| 10 to 500 nM | CC(C)(C)c1ccc(/C(=C\[C@H]2CCC(=O)N2)c2ccc(C3CCCC3)c(=O)[nH]2)cc1 [Example 4-194, 6-{(E)-1-(4-tert-Butylphenyl)-2-[(2R)-5-oxopyrrolidin-2-yl]ethenyl}-3-cyclopentylpyridin-2(1H)-one] |
| 10 to 500 nM | CC(C)(C)c1ccc(/C(=C\[C@H]2CCC(=O)N2)c2ccc(CCc3ccccc3)c(=O)[nH]2)cc1 [Example 4-196, 6-{(E)-1-(4-tert-Butylphenyl)-2-[(2R)-5-oxopyrrolidin-2-yl]ethenyl}-3-(2-phenylethyl)pyridin-2(1H)-one] |
| 500 to 3000 nM | CC(C)(C)c1ccc(/C(=C\[C@H]2CCC(=O)N2)c2ccc(CCCc3ccccc3)c(=O)[nH]2)cc1 [Example 4-197, 6-{(E)-1-(4-tert-Butylphenyl)-2-[(2R)-5-oxopyrrolidin-2-yl]ethenyl}-3-(3-phenylpropyl)pyridin-2(1H)-one] |
| 500 to 3000 nM | O=C1CC[C@H](/C=C(\c2ccc(C(F)(F)F)cc2)c2ccc(CCCCO)c(=O)[nH]2)N1 [Example 4-200, 3-(4-Hydroxybutyl)-6-{(E)-2-[(2R)-5-oxopyrrolidin-2-yl]-1-[4-(trifluoromethyl)phenyl]ethenyl}pyridin-2(1H)-one] |
